From patent publication US4112228A, “7-(D-α-Hydroxy-2-arylacetamido)-3-(2-carboxyalkyl-2,3-dihydro-s-tri azolo-[4,3-b]pyridazin-3-on-6-ylthiomethyl)-3-cephem-4-carboxylic acids and derivatives” (priority 1977, dated 1978)
In brackets after ≈: the same amount, converted by molar mass. Where two headings read alike, the source gives them in different places.

Experiments:
bacteria of Table 4 = assay: Media effect on MIC (Nutrient, Mueller-Hinton, Heart-Infusion agar); format: cell-based; details: NA, MHA, HIA
Pr. vulgaris = assay: MIC by Steers' agar dilution method; details: Proteus vulgaris
K. pneumoniae A9977 = assay: Standard experimental infection in mice; format: in vivo; details: for ED50: Klebsiella pneumoniae, A9977, read-out: PD50
P. inconstans = assay: MIC by Steers' agar dilution method; details: Providencia alcalifaciens
Enterob. cloacae = assay: MIC by Steers' agar dilution method
[1] = test system: P. mirabilis A9900 (Pm-2); assay: Standard experimental infection (single sc treatment); details: for No. of survivors/No. tested: Run C-810, 1×10^3 LD50, single sc
S. paratyphi = assay: MIC by Steers' agar dilution method; details: Salmonella enterica
E. coli = assay: MIC by Steers' agar dilution method; format: cell-based; details: Escherichia coli

## O=C(O)Cn1nc2ccc(SCC3=C(C(=O)O)N4C(=O)C(NC(=O)[C@H](O)c5ccccc5)[C@H]4SC3)nn2c1=O (stereo partly drawn) [BB-S488, 7-(D-Mandelamido)-3-(2-carboxymethyl-2,3-dihydro-s-triazolo[4,3-b]pyridazin-3-on-6-ylthiomethyl)-3-cephem-4-carboxylic Acid]
Bacteria of Table 4
  Media effect on MIC: little media effect
Pr. vulgaris; A9436, MHA, Table 1
  MIC: 0.1 µg/mL (≈ 0.175 µM)
Pr. vulgaris; A9699, MHA, Table 1
  MIC: 0.2 µg/mL (≈ 0.349 µM)
Pr. vulgaris; ATCC9920, Pv-4 ATCC 9920, MHA, Table 3
  MIC: 0.1 µg/mL (≈ 0.175 µM)
Pr. vulgaris; Pv-1 A9436, HIA, Table 4
  MIC: 0.2 µg/mL (≈ 0.349 µM)
Pr. vulgaris; Pv-1 A9436, MHA, Table 3
  MIC: 0.2 µg/mL (≈ 0.349 µM)
Pr. vulgaris; Pv-1 A9436, MHA, Table 4
  MIC: 0.1 µg/mL (≈ 0.175 µM)
Pr. vulgaris; Pv-1 A9436, NA, Table 4
  MIC: 0.2 µg/mL (≈ 0.349 µM)
Pr. vulgaris; Pv-2 A9526, MHA, Table 3
  MIC: 6.3 µg/mL (≈ 11 µM)
Pr. vulgaris; Pv-3 A9699 (β-lactamase), HIA, Table 4
  MIC: 100 µg/mL (≈ 175 µM)
Pr. vulgaris; Pv-3 A9699 (β-lactamase), MHA, Table 4
  MIC: 0.8 µg/mL (≈ 1.4 µM)
Pr. vulgaris; Pv-3 A9699 (β-lactamase), NA, Table 4
  MIC: 0.8 µg/mL (≈ 1.4 µM)
Pr. vulgaris; Pv-3 A9699, MHA, Table 3
  MIC: 6.3 µg/mL (≈ 11 µM)
Pr. vulgaris; Pv-5 A9539, MHA, Table 3
  MIC: 25 µg/mL (≈ 43.7 µM)
Pr. vulgaris; Pv-6 A9716, MHA, Table 3
  MIC: 0.1 µg/mL (≈ 0.175 µM)
Pr. vulgaris; Pv-7 A21240, MHA, Table 3
  MIC: 25 µg/mL (≈ 43.7 µM)
Pr. vulgaris; strain not given (1st of 2), MHA, Example 10
  MIC: 0.1 µg/mL (≈ 0.175 µM)
Pr. vulgaris; strain not named (2nd of 2), MHA, Example 10
  MIC: 0.8 µg/mL (≈ 1.4 µM)
K. pneumoniae A9977; 0.1 mg./kg., Table 6
  No. of survivors/No. tested: 0/5
K. pneumoniae A9977; 0.4 mg./kg., Table 6
  No. of survivors/No. tested: 4/5
K. pneumoniae A9977; 1.6 mg./kg., Table 6
  No. of survivors/No. tested: 5/5
K. pneumoniae A9977; 6.3 mg./kg., Table 6
  No. of survivors/No. tested: 5/5
K. pneumoniae A9977; 25 mg./kg., Table 6
  No. of survivors/No. tested: 5/5
K. pneumoniae A9977; Run C-805, 3×10^3 LD50, single sc
  ED50: 0.26 mg/kg
K. pneumoniae A9977; Table 6
  ED50: 0.26 mg/kg
K. pneumoniae A9977; Run C-805, 3×10^3 LD50, single sc, 0.1 mg./kg.
  No. of survivors/No. tested: 0/5
K. pneumoniae A9977; Run C-805, 3×10^3 LD50, single sc, 0.4 mg./kg.
  No. of survivors/No. tested: 4/5
K. pneumoniae A9977; Run C-805, 3×10^3 LD50, single sc, 1.6 mg./kg.
  No. of survivors/No. tested: 5/5
K. pneumoniae A9977; Run C-805, 3×10^3 LD50, single sc, 6.3 mg./kg.
  No. of survivors/No. tested: 5/5
K. pneumoniae A9977; Run C-805, 3×10^3 LD50, single sc, 25 mg./kg.
  No. of survivors/No. tested: 5/5
P. inconstans
  MIC: 0.1 µg/mL (≈ 0.175 µM)
Enterob. cloacae; A9656, MHA, Table 1
  MIC: 3.1 µg/mL (≈ 5.41 µM)
Enterob. cloacae; El-1 A9656, HIA, Table 4
  MIC: 6.3 µg/mL (≈ 11 µM)
Enterob. cloacae; El-1 A9656, MHA, Table 3
  MIC: 3.1 µg/mL (≈ 5.41 µM)
Enterob. cloacae; El-1 A9656, MHA, Table 4
  MIC: 3.1 µg/mL (≈ 5.41 µM)
Enterob. cloacae; El-1 A9656, NA, Table 4
  MIC: 12.5 µg/mL (≈ 21.8 µM)
Enterob. cloacae; El-2 A20364 (β-lactamase), HIA, Table 4
  MIC: 6.3 µg/mL (≈ 11 µM)
Enterob. cloacae; El-2 A20364 (β-lactamase), MHA, Table 4
  MIC: 3.1 µg/mL (≈ 5.41 µM)
Enterob. cloacae; El-2 A20364 (β-lactamase), NA, Table 4
  MIC: 12.5 µg/mL (≈ 21.8 µM)
Enterob. cloacae; El-2 A20364, MHA, Table 3
  MIC: 3.1 µg/mL (≈ 5.41 µM)
Enterob. cloacae; El-4 A20650, MHA, Table 3
  MIC: 1.6 µg/mL (≈ 2.79 µM)
Enterob. cloacae; El-6 A9657, MHA, Table 3
  MIC: 0.8 µg/mL (≈ 1.4 µM)
Enterob. cloacae; El-7 A9659, MHA, Table 3
  MIC: 1.6 µg/mL (≈ 2.79 µM)
Enterob. cloacae; El-8 A9655, MHA, Table 3
  MIC: 1.6 µg/mL (≈ 2.79 µM)
Enterob. cloacae; El-9 A20021, MHA, Table 3
  MIC: > 100 µg/mL
Enterob. cloacae; El-11 A20344 (β-lactamase), HIA, Table 4
  MIC: > 100 µg/mL
Enterob. cloacae; El-11 A20344 (β-lactamase), MHA, Table 4
  MIC: > 100 µg/mL
Enterob. cloacae; El-11 A20344 (β-lactamase), NA, Table 4
  MIC: > 100 µg/mL
Enterob. cloacae; El-11 A20344, MHA, Table 3
  MIC: > 100 µg/mL
Enterob. cloacae; El-12 A21006, MHA, Table 3
  MIC: 1.6 µg/mL (≈ 2.79 µM)
Enterob. cloacae; El-14 A20953, MHA, Table 3
  MIC: 0.8 µg/mL (≈ 1.4 µM)
Enterob. cloacae; MHA, Example 10
  MIC: 3.1 µg/mL (≈ 5.41 µM)
[1]; Proteus mirabilis, in Mus musculus, sc, read-out: PD50
  ED50: 1.1 mg/kg
[1]; 0.1 mg./kg.
  No. of survivors/No. tested: 0/5
[1]; 0.4 mg./kg.
  No. of survivors/No. tested: 0/5
[1]; 1.6 mg./kg.
  No. of survivors/No. tested: 4/5
[1]; 6.3 mg./kg.
  No. of survivors/No. tested: 5/5
[1]; 25 mg./kg.
  No. of survivors/No. tested: 5/5
S. paratyphi
  MIC: 0.1 µg/mL (≈ 0.175 µM)
E. coli; A9660, MHA, Table 1, read-out: MIC
  MIC: 0.05 µg/mL (≈ 0.0873 µM)
E. coli; A15147, MHA, Table 1, read-out: MIC
  MIC: 3.1 µg/mL (≈ 5.41 µM)
E. coli; A15810, MHA, Table 1, read-out: MIC
  MIC: 0.1 µg/mL (≈ 0.175 µM)
E. coli; ATCC8739, ATCC 8739, MHA, Example 10
  MIC: 6.3 µg/mL (≈ 11 µM)
E. coli; ATCC8739, ATCC 8739, MHA, Table 1, read-out: MIC
  MIC: 0.1 µg/mL (≈ 0.175 µM)
E. coli; ATCC8739, Ec-15 ATCC 8739, HIA, Table 4, read-out: MIC
  MIC: 0.2 µg/mL (≈ 0.349 µM)
E. coli; ATCC8739, Ec-15 ATCC 8739, MHA, Table 3, read-out: MIC
  MIC: 0.2 µg/mL (≈ 0.349 µM)
E. coli; ATCC8739, Ec-15 ATCC 8739, MHA, Table 4, read-out: MIC
  MIC: 0.2 µg/mL (≈ 0.349 µM)
E. coli; ATCC8739, Ec-15 ATCC 8739, NA, Table 4, read-out: MIC
  MIC: 0.1 µg/mL (≈ 0.175 µM)
E. coli; BX-1373, MHA, Example 10, read-out: MIC
  MIC: 3.1 µg/mL (≈ 5.41 µM)
